The text below walks through data of patent US4864038A, “Antihypercholesterolemic compounds” (Merck & Co., Inc., priority 1988, dated 1989).

The assay relates to HMG-CoA reductase. The experiment in a line: HMG-CoA Reductase Inhibition Assay (in vitro, intrinsic inhibitory activity). The assay is classed as biochemical. To be noted: IC50 of test compound compared with compactin determined simultaneously, compactin assigned a value of 100; tested as sodium salt of dihydroxy acid form; rat liver microsomal enzyme. As to the method: The intrinsic HMG-CoA reductase inhibition activity of the claimed compounds is measured in the in vitro protocol published in J. Med. Chem., 28, p. 347-358 (1985) and described below:
Male Holtzman Sprague-Dawley rats (225-250 g) were kept on reversed lighting and fed Purina rat chow containing 3% cholestryamine for 7 days preceding their sacrifice by CO2 asphyxiation. Livers were removed 6 hours into the dark cycle and used immediately to prepare microsomes. […]
Test compounds or compactin (after first being converted to the sodium salt of their dihydroxy acid form in situ by addition of 1N NaOH (1 equivalent) were added to the assay system in 10-μL volumes at multiconcentration levels. After a 40-minute incubation at 37° C. with shaking and exposure to air, the reaction was stopped by the addition of 0.4 mL of 8N HCl. After an additional 30-minute incubation period at 37° C. to ensure the complete lactonization of mevalonic acid to mevalonolactone, 0.2 ml of the mixture was added to an 0.5×5.0 cm column containing 100-200 mesh Bio-Rex 5, chloride form (Bio-Rad), wetted with distilled water, as described by Alberts et al [J. Proc. Natl. Acad. Sci. U.S.A., 1980, 77, 3957]. […] Five milliliters of Aquasol-2 (New England Nuclear) was added to each vial, and radioactivity was measured in a Packard Tri Carb Prias scintillation counter. […]

Each structure is given as a SMILES string.

In the case of `C[C@H]1C=C2C=C[C@H](C)[C@H](CC[C@@H]3C[C@@H](O)CC(=O)O3)[C@H]2[C@@H](OC(=O)C(C)(C)Sc2ccccc2)C1` [Example 1, 6(R)-[2-[8(S)-[2-Methyl-2-(phenylthio)propionyloxy]-2(S),6(R)-dimethyl-1,2,6,7,8,8a(R)-hexahydronaphthyl-1(S)]ethyl]-4(R)-hydroxy-3,4,5,6-tetrahydro-2H-pyran-2-one], the “Relative Potency” value came to 156.
The figure for `C[C@H]1C=C2C=C[C@H](C)[C@H](CC[C@@H]3C[C@@H](O)CC(=O)O3)[C@H]2[C@@H](OC(=O)C(C)(C)[S+]([O-])c2ccccc2)C1` (stereo partly drawn) [Example 2, 6(R)-[2-[8(S)-[2-Methyl-2-(phenylsulfinyl)propionyloxy]-2(S),6(R)-dimethyl-1,2,6,7,8,8a(R)-hexahydronaphthyl-1(S)]ethyl]-4(R)-hydroxy-3,4,5,,6-tetrahydro-2H-pyran-2-one] is 38.
